The values that follow come from PMC3636874, “An Antedrug of the CXCL12 Neutraligand Blocks Experimental Allergic Asthma without Systemic Effect in Mice” (The Journal of Biological Chemistry, 2013).

Data set [1] concerns CXCL12 action on forskolin-evoked cAMP responses via CXCR4. Nature of the data set: cAMP determination with BRET sensor CAMYEL in HEK EGFP-hCXCR4 cells. The format is cell-based. Particulars: Homo sapiens; HEK293 EGFP-hCXCR4, 1 μM forskolin, 3 nM CXCL12; read-out: IC50, inhibition of CXCL12 effect on forskolin-evoked cAMP formation. As for the experimental part: CXCR4 receptor coupling to adenylyl cyclase was assessed by measuring the dose-dependent inhibitory effects of chemokine with or without chalcone on forskolin-stimulated cAMP accumulation. To facilitate studies of cAMP regulation, we used a developed bioluminescence resonance energy transfer (BRET) sensor for cAMP, CAMYEL (cAMP sensor using YFP-Epac-RLuc), which can quantitatively and rapidly monitor intracellular concentrations of cAMP in cells ([47]). HEK EGFP-hCXCR4 cells were cultured to ∼80% confluence in 75-cm^2 flasks in MEM with Earle's salt supplemented with 10% fetal calf serum, 2 mM glutamine, and 1% antibiotics (penicillin/streptomycin). Cells were plated on 10-cm plates and transfected with 10 μg of CAMYEL plasmid using the calcium phosphate precipitation method. Two days later, cells were plated in 96-well solid white tissue culture plates (Greiner) at a density of 60,000 cells/well the day before cAMP assay. […] The BRET assay was carried out with a Victor Light plate reader (PerkinElmer Life Sciences). Emission signals from Renilla luciferase and YFP were measured sequentially using a BRET1 filter set (475-30/535-30). […] After 5 min, 10 μl of a Hanks' balanced salt solution of coelenterazine-H (2 μM) were added, and plates were incubated for 10 min at 37 °C before reading.

The next data set in a line: Stability in mouse serum. The format is in vitro ADME. Particulars: 37 °C; for half-life at 20 μM: mouse, mouse serum. The protocol:
(§1) Solubility and stability studies were performed on a Gilson HPLC system with a photodiode array detector, an autosampler, and a Valco injector. Data acquisition and processing were performed with Trilution LC version 2.0 software. Measurements were carried out at 21 ± 1 °C. A 2.6-μm Kinetex column (50 × 4.6 mm) was used for stability studies in biological media, and a 5-μm Luna C18(2) column (50 × 4.6 mm) was used for solubility and chemical stability analysis. Both columns were purchased from Phenomenex. The injection volume was 20 μl, the mobile phase flow rate was 2 ml/min, and the following program was applied for the elution: 0–0.2 min, 0% B; 0.2–2.7 min, 0–100% B; 2.7–3.2 min, 100% B; 3.2–3.4 min, 100–0% B; 3.4–6.1 min, 0% B. Solvent B was HPLC grade acetonitrile (Sigma-Aldrich CHROMASOLV). The aqueous solvent contained 0.1% trifluoroacetic acid, and the detection wavelength was 365 nm.
Stability of chalcones was determined in mouse serum with or without 10% HP-βCD at 37 °C up to 16 h. For each compound, the 10 mM DMSO stock solution was diluted in serum to a final concentration of 20 μM with 1% DMSO. For the measurements with HP-β-cyclodextrin, a solution of PBS (pH 7.4) containing 10% (v/w) HP-βCD was saturated with compound powder. The saturated solution was then diluted in murine serum to a final compound concentration of 20 μM. The mixture was divided into five aliquots. The incubation of each aliquot was stopped at t0 and 30 min, 1, 2, and 16 h for chalcone 4 and at t0 and 15, 30, 45, and 60 min for CN-chalcone 4 by adding one volume of ice cold acetonitrile. Samples were stirred for 3 min, sonicated for 3 min, and then centrifuged at 4 °C before HPLC injection. The percentage of remaining test compound relative to t0 was measured by monitoring the peak area on the chromatogram.

A short description of data set [2]: Stability in mouse lung homogenate. In kind it is in vitro ADME. Particulars: 37 °C; for half-life at 20 μM: mouse, mouse lung homogenate. As for the experimental part:
as §1
Stability of chalcones was determined in mouse lung homogenate with or without HP-βCD 10% at 37 °C. Lung homogenate was prepared separately with a Fastprep® (Q-BIOgene, Illkirch, France) in PBS (one lung homogenized in 1 ml of buffer). For each compound, the incubation solutions, the sampling, and the extraction conditions were prepared as described under “Stability in Mouse Serum.”

Where [3] appears, read: 20 μM, with 10% HP-βCD, read-out: Stability half-life (t1/2), murine serum, 10% β-cyclodextrine (converted).
[4] abbreviates: 20 μM, read-out: Stability half-life (t1/2), murine serum (converted).
The mark [5] stands for this setting: with 10% HP-βCD, read-out: Stability half-life (t1/2), lung homogenate, 10% β-cyclodextrine (converted).

Usually IC50 stands for the point on the concentration scale where inhibition reaches its midpoint.

Some results are limits rather than exact numbers.

Turning to `COc1cc(/C=C/C(=O)c2ccc(Cl)cc2)ccc1O` [chalcone 4], the IC50 in data set [1] worked out at 4.1 ± 0.3 µM. In addition, the “percentage of starting molecule recovered, murine serum” value in “Stability in mouse serum” (at 16 h) was 96%. Moreover, in the data set “Stability in mouse serum” (at 16 h), the “percentage of starting molecule recovered, murine serum, 10% β-cyclodextrine” value was found to be 91%. In addition, the half-life at 20 μM (in “Stability in mouse serum” (setting [3]); in the data set “Stability in mouse serum” (setting [4]); in data set [2] (setting [5])) was more than 960 min throughout. The “percentage of starting molecule recovered, lung homogenate, 10% β-cyclodextrine” value in data set [2] (at 16 h) stood at 66%.
With `COc1cc(/C=C(\C#N)C(=O)c2ccc(Cl)cc2)ccc1O` [CN-chalcone 4, (E)-2-(4-chlorobenzoyl)-3-(4-hydroxy-3-methoxyphenyl)acrylonitrile], in data set [1], the IC50 is 6.9 ± 0.4 µM. In addition, the half-life at 20 μM in “Stability in mouse serum” (setting [3]) is 78 min; in the data set “Stability in mouse serum” (setting [4]), 18 min; in the data set “Stability in mouse serum” (read-out: t½ in murine serum) it was 20 min; in data set [2] (10% HP-βCD, read-out: half-life in lung homogenate in the presence of HP-βCD) it was 40 min; in data set [2] (setting [5]) it was 36 min; in data set [2] (read-out: Stability half-life (t1/2), lung homogenate (converted)), 24 min. Also, the half-life at 20 μM in data set [2] (read-out: t½ in lung homogenate) turned out to be 25 min.
